According to patent US11571443B2, “Phosphorylated tri-block copolymers with antimicrobial properties” (THE UNIVERSITY OF CHICAGO, priority 2016, dated 2023):
“Also recorded” adds a separate entry of the source.

Key:
human pathogen community = assay: Mice with 30% hepatectomy and intestinal infection with human pathogen community, polymers in drinking water; assay type: in vivo
Text: (A) FIG. 10(A) provides data showing the extent of cell proliferation in cecal crypts of mice provided with drinking water lacking a phosphorylated PEG (PC 1-3, i.e., pathogen community, plates 1-3 wherein each plate contained 10 or 15 C. elegans worms exposed to pathogens), drinking water containing 3% PPi6 (hexametaphosphate) (PPi6 1-3 refers to plates 1-3 as described above, but exposed to pathogens from mice drinking 3% PPi6), or drinking water containing 1% ABA-PEG20k (ABA-PEG20k-P120 1-3, wherein 1-3 refers to plates 1-3 as described above exposed to pathogen from mice drinking 1% ABA-PEG20k). All groups are SAH+PC (starvation-positive, antibiotic-positive hepatectomy subjects exposed to the pathogen community), POD2 (data from post-operative day 2), and cell proliferation is measured by immunostaining for Ki67.
An experiment was conducted to assess the effects of phosphorylated polymers, i.e., PPi-6 and ABA-PEG20k-Pi20, delivered orally as drinking solutions to mice subjected to 30% hepatectomy and intestinal infection with the human pathogen community. More particularly, the mice were divided into the following groups. Group 1 contained starvation-positive, antibiotic-positive mice receiving no phosphorylated PEG but exposed to the pathogen community. Data from three groups of mice were analyzed. Absolute (FIG. 16A) and relative to crypt depth (FIG. 16B) Ki67 distributions were counted on 90 crypts cumulative of 3 mice in each group. Group 2 contained starvation-positive, antibiotic-positive mice receiving 3% PPi-6 and exposed to the pathogen community. Data from three mice were analyzed, totaling 109 crypts for Ki67 counts. Group 3 contained starvation-positive, antibiotic-positive mice receiving 1% ABA-PEG20k-Pi20 and exposed to the pathogen community. Data from three mice were analyzed, totaling 168 crypts for Ki67 counts.
Stem cell proliferation in cecal crypts, measured by immunostaining for the Ki67 marker, provides an accepted measure of crypt homeostasis.

[1] = tested on: Enterococcus faecalis collagenolytic strains (E2 and E27); assay: Collagenase production of collagenolytic Enterococcus faecalis, overnight incubation; assay type: cell-based; conditions: in vitro
Enterococcus faecalis = assay: Growth of Enterococcus faecalis; assay type: cell-based; conditions: in vitro
Procedure: The inability of PPi-6 to suppress the collagenolytic activity of E. faecalis in vitro relates to its inability in vivo to improve anastomotic healing. […] The efficacy of this compound in vivo correlated to its ability to profoundly suppress collagenase activity in these strains […]. […] Actually, PPi-6 at concentrations of >2 mM even suppressed the E. faecalis growth.

S. marcescens [2] = conditions: cited from earlier work
P. aeruginosa [3] = conditions: cited from earlier work
S. marcescens [4] = conditions: supplementation in the drinking water; cited from earlier work
P. aeruginosa [5] = conditions: supplementation in the drinking water; cited from earlier work
E. faecalis E2 = conditions: oral administration
Procedure: Next, the compound was tested in a mouse model of E. faecalis-mediated anastomotic leak by providing 1% ABA-PEG20k-Pi20 in drinking water. At post-operative day (POD) 7, anastomotic healing was assessed and the total amount of E. faecalis present at the anastomotic site and the percentage of E. faecalis expressing the collagenolytic phenotype were determined.
Two groups of mice were involved in this study. All mice were subjected to colon anastomosis followed by an enema of E. faecalis E2 at POD1. The first group received water, and the second group received 1% ABA-PEG20k-Pi20 dissolved in water. At the time of sacrifice at POD7, the tissues and luminal contents were collected at the site of anastomosis, homogenized, and used for culturing. Total Enterococcus colonization at the anastomosis site and luminal content were determined by culture analysis using Enterococcal selective plates (BD Difco) on which all Enterococcus species produced black-pigmented colonies. The CFU count was normalized to the sample weight. […] The collagenolytic population was evaluated on Enterococcal plates covered with skim milk on which collagenolytic species produced black colonies with a clearing halo surrounding the colony.

[6] = 3% PPi6 or 1% polymer in drinking water, POD2, SAH+PC mice

With `O=P1([O-])OP(=O)([O-])OP(=O)([O-])OP(=O)([O-])OP(=O)([O-])OP(=O)([O-])O1.[Na+].[Na+].[Na+].[Na+].[Na+].[Na+]` [PPi-6, Sodium hexametaphosphate] the “abnormal stem cell proliferation in cecal crypts” value (human pathogen community; 3% PPi6 or 1% ABA-PEG20k-Pi20 in drinking water) was “inhibit abnormal stem cell proliferation”, the “height of cell proliferation above cecal crypt base (Ki67)” value (human pathogen community; [6]) was 31.04±1.288 m and the “height of proliferating cells relative to cecal crypt depth (Ki67)” value (human pathogen community; [6]) was 35.12±1.332 m. The mortality rate (human pathogen community; post-operative day 2, 3% PPi6 or 1% ABA-PEG20k-Pi20 in drinking water) was 0%, the “collagenase production / collagenolytic activity of E. faecalis” value [1] was “only slightly attenuated collagenase production; also recorded: does not affect the collagenolytic activity” and the E. faecalis growth (Enterococcus faecalis) was “does not promote a growth”. The “concentration that suppressed E. faecalis growth” value (Enterococcus faecalis) was > 2 mM, the collagenase production (S. marcescens [2]) was “profoundly suppresses the collagenase production” and the collagenase production (P. aeruginosa [3]) was “profoundly suppresses the collagenase production”. For the same molecule, the “protection from colonic anastomosis leakage” value (S. marcescens [4]) was “protects mice from colonic anastomosis leakage”, the “protection from colonic anastomosis leakage” value (P. aeruginosa [5]) was “protects mice from colonic anastomosis leakage” and the “anastomotic healing / protection in mouse model” value (E. faecalis E2) was “did not improve the anastomotic healing complications”.
